Values joined by “and” are separate entries in the source; they are usually repeats but may differ in a detail not shown here. Equal values may be shown once. Read-outs that look alike come from different tables or passages of the source.
Key:
[1] = tested on: Clostridium pasteurianum ATCC 6013; assay: Product yields and substrate utilization of fermentation (HPLC); conditions: for effect of addition on butanol / product formation: added to glycerol fermentation; for 1,3-PDO yield / conversion: sole carbon source
Protocol: Freeze dried pure cultures of C. pasteurianum were revived using nutrient rich reinforced clostridal growth media (RCM) and glycerol stock cultures were prepared for future use. […] Pre-culture for glycerol utilization experiments were grown in RCM. The growth was monitored using optical density and the cultures were used as inoculum once they reached mid-exponential phase of growth. The growth experiments were conducted in 75 mL culture flasks containing 40 mL of the media and 5 mL of inoculum. Defined media was used for glycerol utilization. Unless otherwise specified purified glycerol or biodiesel derived crude glycerol were used as the sole carbon source. All experiments were conducted in an anaerobic chamber (95% N2 and 5% H2) at a temperature of 37° C. to ensure oxygen-free conditions.
(§1) Pre-cultures for glycerol utilization experiments were grown in RCM. The growth was monitored using optical density (λ=600 nm) and the cultures were used as inoculum once they reached the mid-exponential phase of growth. 100 mL of Biebl medium with appropriate carbon sources was inoculated with 10% inoculum and the contents were split equally into three in a 75 mL culture flask. All experiments were carried out in batch cultures and in triplicates. The cultures were monitored for growth, substrate utilization and product formation as mentioned earlier.
The co-fermentation of sugars was studied using hexose (dextrose) and pentose (D-xylose and L-arabinose) with 20 g/L of pure glycerol at a concentration of 10 g/L of the sugars, maintaining a 2:1 ratio of glycerol and sugars. Cells grown on glycerol or sugar alone were used as controls.

[2] = tested on: Clostridium pasteurianum ATCC 6013; assay: Growth (optical density, μmax) and pH profiles of batch cultures; format: cell-based; conditions: for maximum specific growth rate, μmax: exponential log phase, 20 g/L glycerol and/or 10 g/L sugar; for effect on maximum optical density: 2 g/L sodium salt in 25 g/L pure glycerol
Protocol: as §1
The co-fermentation of sugars was studied using hexose (dextrose) and pentose (D-xylose and L-arabinose) with 20 g/L of pure glycerol at a concentration of 10 g/L of the sugars, maintaining a 2:1 ratio of glycerol and sugars. Cells grown on glycerol or sugar alone were used as controls. […] Acetate and butyrate were studied at concentrations of 2 g/L with an initial glycerol concentration of 25 g/L of pure glycerol. Biotin was supplemented in the media at 0.8 mg/L with an initial concentration of 25 g/L of pure glycerol.

[3] = tested on: Clostridium pasteurianum ATCC 6013; assay: Effect of impurities on glycerol fermentation; format: cell-based; conditions: for growth and product yield: salt at 2.5, 5, 7.5 and 10% (w/w) of initial glycerol; for growth and product yield / substrate utilization: 25 g/L pure glycerol; for substrate utilization: fatty acid sodium salt at 5%, 10% and 15% (w/w) of initial substrate
Protocol: Defined media was used for glycerol utilization.
To study the effect of impurities in crude glycerol, various concentrations of each impurity were added to the media containing 25 g/L pure glycerol. Methanol was added at 2.5 g/L and 5 g/L. Potassium chloride and potassium sulfate were added at 2.5, 5, 7.5 and 10% (w/w) of the initial glycerol concentration. The fatty acids were added in the form of sodium salts of steric acid, oleic acid and linoleic acid at 5, 10 and 15% (w/w) (of initial substrate conc.). The media containing 25 g/L of pure glycerol was used as the control. The effects of fatty acids were also studied by partially purifying the crude glycerol by precipitating the fatty acids using concentrated hydrochloric acid. The crude glycerol was diluted in deionized water at a ratio of 1:3 and hydrochloric acid was added to lower pH to between 2 and 3. At this pH the fatty acids precipitated and were removed by centrifugation at 5000 rpm for 15 minutes. The precipitated fatty acids were later analyzed using NMR by dissolving them in d-DMSO.

C. acetobutylicum = conditions: butyrate addition at 2 g/L, reported; cited from earlier work
[4] = tested on: Clostridium pasteurianum ATCC 6013
Protocol: The cell membrane was extracted using dichloromethane/methanol mixtures. The membrane extracted in dichloromethane was separated by evaporating the solvents under a gentle nitrogen stream. This dry film of the membrane was used for further analysis.
The dry film of the membrane was dissolved in deuterated chloroform for NMR analysis. Synthetic lipids such as Diaplmitoylphosphotidylcholine (DPPC) and Dioleylphosphotidylcholine (DOPC) were used as standards for NMR analysis. The dry films of the membrane lipids were labeled with DPH (500:1) and made into liposomes for analyzing the stability of the membrane by studying the fluorescence anisotropy using a Perkin-Elmer LS50B.

[5] = L-arabinose added to glycerol, vs glycerol alone
[6] = endogenously produced butanol, defined media, varied glycerol concentration
[7] = exogenous butanol 2 g/L to 20 g/L, defined media with 50 g/L glucose and RCM

## O=C[C@H](O)[C@@H](O)[C@H](O)CO [D-xylose]
[1]; D-xylose as sole carbon source
  acetate, 1,3-PDO and ethanol as share of the overall products: 88%
  product formation: 0.78 g/g
[1]
  effect of addition on butanol / product formation: did not result in an increase in the formation of any of the products
[1]; addition of D-xylose to glycerol fermentation, 2:1
  utilization of D-xylose: 25±16%
[1]; co-fermentation of glycerol with xylose
  D-xylose left unconsumed in the media: more than 90%
[2]
  maximum specific growth rate, μmax: 0.794 ± 0.390 day⁻¹

## OCC(O)CO [Glycerol, glycerol]
[1]; control experiment with glycerol
  butanol yield: 22 % (g/g)
[1]; control
  1,3-PDO yield / conversion: 20 % (g/g)
[2]
  maximum specific growth rate, μmax: 1.562 ± 0.118 day⁻¹

## O=C[C@H](O)[C@@H](O)[C@@H](O)CO [L-arabinose]
[1]; L-arabinose added to glycerol
  ethanol yield: 0.10 g/g
[1]; [5]
  increase of 1,3-PDO yield: 65%
  increase of ethanol yield: 5 fold
[1]; L-arabinose as carbon source
  1,3-PDO and ethanol as share of overall products: 85%
[1]
  effect of addition on butanol / product formation: does not affect the yield of butanol
[1]; addition of L-arabinose to glycerol
  ratio of butanol/1,3-PDO: 0.64
[1]; control, L-arabinose sole carbon source
  1,3-PDO maximum yield: 36.5 % (g/g)
[1]; control
  1,3-PDO yield / conversion: 28 % (g/g)
[1]; cultures on arabinose
  Ethanol and 1,3-PDO as share of the products yielded: ~86 % (mol/mol)
[1]; sugar 10 g/L added as co-substrate to 20 g/L glycerol, with respect to glycerol
  1,3-PDO yield: 0.33 g/g
[2]
  maximum specific growth rate, μmax: 0.933 ± 0.054 day⁻¹

## [Cl-].[K+] [Potassium chloride]
[3]
  growth and product yield: no detrimental effect on growth and product yield

## CC(=O)[O-].[Na+] [acetate, sodium acetate]
[1]
  decrease in 1,3-PDO production: 33%
  increase in butanol formation: ~25% and 23%
[2]
  effect on maximum optical density: small increase in the maximum optical density

## O=C(O)CCCC[C@@H]1SC[C@@H]2NC(=O)N[C@@H]21 [biotin]
[1]; supplement (acetate 2 g/L, biotin 0.8 mg/L) in 25 g/L pure glycerol, vs control
  increase in butanol formation: 18% and ~25%

## CCCC(=O)[O-].[Na+] [butyrate, sodium butyrate]
C. acetobutylicum
  increase of butanol production: 1.6 folds
[1]
  effect of addition on butanol / product formation: did not increase butanol production
[2]
  effect on maximum optical density: slightly lower maximum optical density
[2]; butyrate 2 g/L in 25 g/L pure glycerol
  lowering of the maximum optical density: 20%

## CO [methanol]
[3]; methanol at 2.5 g/l and 5 g/L in media with 25 g/L pure glycerol
  growth or product formation during the fermentation of glycerol: no reduction in growth or product formation

## O=S(=O)([O-])[O-].[K+].[K+] [potassium sulfate]
[3]
  growth and product yield: no detrimental effect on growth and product yield

## CCCCC/C=C\C/C=C\CCCCCCCC(=O)[O-].[Na+] [sodium linoleate]
[3]
  substrate utilization: completely inhibited

## CCCCCCCC/C=C\CCCCCCCC(=O)[O-].[Na+] [sodium oleate]
[3]
  substrate utilization: not affected

## CCCCCCCCCCCCCCCCCC(=O)[O-].[Na+] [sodium stearate]
[3]
  substrate utilization: not affected

## butanol
[4]; [6]
  anisotropy of membrane: corresponding increase in anisotropy
  degree of unsaturation of membrane fatty acids: a decrease in the degree of unsaturation
[4]; [7]
  anisotropy of membrane: found to decrease
  degree of unsaturation of membrane fatty acids: observed to increase

— US20150037832A1, “METHODS OF FACILITATING THE BIOCONVERSION OF CRUDE BIODIESEL-DERIVED GLYCEROL BY MICROORGANISMS” (priority 2011, published 2015)
